The compounds below were run against T1, TNF-α (Homo sapiens, UniProt P01375) (assay: TNF-α Induced HEK Blue Cellular Assay (secreted alkaline phosphatase expression, QUANTI-Blue)). Details: HEK Blue TNFα reporter cells; TNF-α 100 μg/ml; 24 hrs at 37° C.; inhibition of secreted alkaline phosphatase; read-out: IC50 value.
T1 construct: purchased R&D 210-TA-020/CF
Type: cell-based
In short: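 HEK Blue TNFα reporter cells (10,000/well) in DMEM with 10% FBS received compound ([…] to 0.5 nM final) and TNF-α at […] final for 24 h at 37° C. Secreted alkaline phosphatase read with QUANTI-Blue at 620 nm. IC50 came from a 4-parameter logistic fit after normalising to unstimulated and stimulated DMSO controls.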

T1 sequence (P01375 77-233 limits assumed): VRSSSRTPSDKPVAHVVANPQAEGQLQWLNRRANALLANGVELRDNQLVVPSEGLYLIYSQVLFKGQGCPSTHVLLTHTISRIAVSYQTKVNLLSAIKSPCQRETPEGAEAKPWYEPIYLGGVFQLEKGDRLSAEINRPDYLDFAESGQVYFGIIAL

Row | IC50 [nM] | SMILES
1 | 100 to 1000 | [2H]C([2H])([2H])N1C(=O)c2cccc(OC(F)F)c2[C@H]2C[C@@H]1c1nc3ccc(C#CCCCN4CCN(C)CC4)cc3n12 [Example 133, (7R,14R)-1-(difluoromethoxy)-6-(methyl-d3)-11-(5-(4-methylpiperazin-1-yl)pent-1-yn-1-yl)-6,7-dihydro-7,14-methanobenzo[f]benzo[4,5]imidazo[1,2-a][1,4]diazocin-5(14H)-one]
2 | < 100 | [2H]C([2H])([2H])N1C(=O)c2cccc(OC(F)F)c2[C@H]2C[C@@H]1c1nc3ccc(C#Cc4cnn(C)c4)cc3n12 [Example 8, (7R,14R)-1-(difluoromethoxy)-6-(methyl-d3)-11-((1-methyl-1H-pyrazol-4-yl)ethynyl)-6,7-dihydro-7,14-methanobenzo[f]benzo[4,5]imidazo[1,2-a][1,4]diazocin-5(14H)-one]
3 | 100 to 1000 | [2H]C([2H])([2H])N1C(=O)c2cccc(OC(F)F)c2[C@H]2C[C@@H]1c1nc3ccc(C#CCO)cc3n12 [Example 144, (7R,14R)-1-(difluoromethoxy)-11-(3-hydroxyprop-1-yn-1-yl)-6-(methyl-d3)-6,7-dihydro-7,14-methanobenzo[f]benzo[4,5]imidazo[1,2-a][1,4]diazocin-5(14H)-one]
4 | < 100 | [2H]C([2H])([2H])N1C(=O)c2cccc(OC(F)F)c2[C@H]2C[C@@H]1c1nc3ccc(C#CCCN4CCCC4)cc3n12 [Example 136, (7R,14R)-1-(difluoromethoxy)-6-(methyl-d3)-11-(4-(pyrrolidin-1-yl)but-1-yn-1-yl)-6,7-dihydro-7,14-methanobenzo[f]benzo[4,5]imidazo[1,2-a][1,4]diazocin-5(14H)-one]
5 | < 100 | [2H]C([2H])([2H])N1C(=O)c2cccc(OC(F)F)c2[C@H]2C[C@@H]1c1nc3ccc(C#C[C@H](C)CO)cc3n12 [Example 129, (7R,14R)-1-(difluoromethoxy)-11-((S)-4-hydroxy-3-methylbut-1-yn-1-yl)-6-(methyl-d3)-6,7-dihydro-7,14-methanobenzo[f]benzo[4,5]imidazo[1,2-a][1,4]diazocin-5(14H)-one]
6 | < 100 | [2H]C([2H])([2H])N1C(=O)c2cccc(OC(F)F)c2[C@H]2C[C@@H]1c1nc3ccc(C#C[C@H]4C[C@H](NC)C4)cc3n12 [Example 254, (7R,14R)-1-(difluoromethoxy)-6-(methyl-d3)-11-(((1r,3R)-3-(methylamino)cyclobutyl)ethynyl)-6,7-dihydro-7,14-methanobenzo[f]benzo[4,5]imidazo[1,2-a][1,4]diazocin-5(14H)-one]
7 | 100 to 1000 | [2H]C([2H])([2H])N1C(=O)c2cccc(OC(F)F)c2[C@H]2C[C@@H]1c1nc3ccc(C#CC4CNC4)cc3n12 [Example 69, (7R,14R)-11-(azetidin-3-ylethynyl)-1-(difluoromethoxy)-6-(methyl-d3)-6,7-dihydro-7,14-methanobenzo[f]benzo[4,5]imidazo[1,2-a][1,4]diazocin-5(14H)-one]
8 | 100 to 1000 | [2H]C([2H])([2H])N1C(=O)c2cccc(OC(F)F)c2[C@H]2C[C@@H]1c1nc3ccc(C#CCN(C)C)cc3n12 [Example 61, (7R,14R)-1-(difluoromethoxy)-11-(3-(dimethylamino)prop-1-yn-1-yl)-6-(methyl-d3)-6,7-dihydro-7,14-methanobenzo[f]benzo[4,5]imidazo[1,2-a][1,4]diazocin-5(14H)-one]
9 | < 100 | [2H]C([2H])([2H])N1C(=O)c2cccc(OC(F)F)c2[C@H]2C[C@@H]1c1nc3ccc(C#Cc4ccc(NC(C)=O)nc4)cc3n12 [Example 255, N-(5-(((7R,14R)-1-(difluoromethoxy)-6-(methyl-d3)-5-oxo-5,6,7,14-tetrahydro-7,14-methanobenzo[f]benzo[4,5]imidazo[1,2-a][1,4]diazocin-11-yl)ethynyl)pyridin-2-yl)acetamide]
10 | < 100 | CCN1C(=O)c2cccc(OC(F)F)c2[C@H]2C[C@@H]1c1nc3ccc(C#Cc4cnn(C)c4)cc3n12 [Example 7, (1R,11R)-18-(difluoromethoxy)-12-ethyl-5-[2-(1-methylpyrazol-4-yl)ethynyl]-2,9,12-triazapentacyclo[9.8.1.0^{2,10}.0^{3,8}.0^{14,19}]icosa-3(8),4,6,9,14(19),15,17-heptaen-13-one]
11 | < 100 | [2H]C([2H])([2H])N1C(=O)c2cccc(OC(F)F)c2[C@H]2C[C@@H]1c1nc3ccc(C#CC4CC4)cc3n12 [Example 85, (7R,14R)-11-(cyclopropylethynyl)-1-(difluoromethoxy)-6-(methyl-d3)-6,7-dihydro-7,14-methanobenzo[f]benzo[4,5]imidazo[1,2-a][1,4]diazocin-5(14H)-one]
12 | 100 to 1000 | [2H]C([2H])([2H])N1C(=O)c2cccc(OC(F)F)c2[C@H]2C[C@@H]1c1nc3ccc(C#Cc4cnc(C(F)(F)F)nc4)cc3n12 [Example 23, (7R,14R)-1-(difluoromethoxy)-6-(methyl-d3)-11-((2-(trifluoromethyl)pyrimidin-5-yl)ethynyl)-6,7-dihydro-7,14-methanobenzo[f]benzo[4,5]imidazo[1,2-a][1,4]diazocin-5(14H)-one]
13 | < 100 | [2H]C([2H])([2H])N1C(=O)c2cccc(OC(F)F)c2[C@H]2C[C@@H]1c1nc3ccc(C#CCC(F)(F)F)cc3n12 [Example 108, (7R,14R)-1-(difluoromethoxy)-6-(methyl-d3)-11-(4,4,4-trifluorobut-1-yn-1-yl)-6,7-dihydro-7,14-methanobenzo[f]benzo[4,5]imidazo[1,2-a][1,4]diazocin-5(14H)-one]
14 | 10000 to 30000 | [2H]C([2H])([2H])N1C(=O)c2cccc(OC(F)F)c2[C@H]2C[C@@H]1c1nc3ccc(C#CC4CCCN(C5CC5)C4)cc3n12 (stereo partly drawn) [Example 218, (7R,14R)-11-((1-cyclopropylpiperidin-3-yl)ethynyl)-1-(difluoromethoxy)-6-(methyl-d3)-6,7-dihydro-7,14-methanobenzo[f]benzo[4,5]imidazo[1,2-a][1,4]diazocin-5(14H)-one]
15 | < 100 | [2H]C([2H])([2H])N1C(=O)c2cccc(OC(F)F)c2[C@H]2C[C@@H]1c1nc3ccc(C#CCC(C)OC)cc3n12 (single isomer, unassigned) [Example 148, (7R,14R)-1-(difluoromethoxy)-11-((R or S)-4-methoxypent-1-yn-1-yl)-6-(methyl-d3)-6,7-dihydro-7,14-methanobenzo[f]benzo[4,5]imidazo[1,2-a][1,4]diazocin-5(14H)-one]
16 | < 100 | [2H]C([2H])([2H])N1C(=O)c2cccc(OC(F)F)c2[C@H]2C[C@@H]1c1nc3ccc(C#CC4(F)CNC4)cc3n12 [Example 253, (7R,14R)-1-(difluoromethoxy)-11-((3-fluoroazetidin-3-yl)ethynyl)-6-(methyl-d3)-6,7-dihydro-7,14-methanobenzo[f]benzo[4,5]imidazo[1,2-a][1,4]diazocin-5(14H)-one]

Same assay, conditions: IC50 value, HEK Blue TNFα reporter cells; TNF-α 100 μg/ml; 24 hrs at 37° C.; inhibition of secreted alkaline phosphatase

Row | SMILES | IC50 [nM]
17 | [2H]C([2H])([2H])N1C(=O)c2cccc(OC(F)F)c2[C@H]2C[C@@H]1c1nc3ccc(C#CCOC4CCC4)cc3n12 [Example 176, (7R,14R)-11-(3-cyclobutoxyprop-1-yn-1-yl)-1-(difluoromethoxy)-6-(methyl-d3)-6,7-dihydro-7,14-methanobenzo[f]benzo[4,5]imidazo[1,2-a][1,4]diazocin-5(14H)-one] | 100 to 1000

From US20260365682A1, “MODULATORS OF TNF-ALPHA ACTIVITY” (Forward Therapeutics, Inc., priority 2022, published 2026)
